The text below walks through data of US10556945B2, “Antagonist antibodies directed against calcitonin gene-related peptide and methods using same” (Teva Pharmaceuticals International GmbH, priority 2014, dated 2020).

One test concerns chronic migraine. Nature of the test: Clinical study of antibody G1 in chronic migraine.
The subject of test [1] is middle meningeal artery (MMA) dilation evoked by electrical field stimulation. Nature of the test: Dural artery (closed cranial window) assay. In kind it is in vivo, rat. Here is the method: Closed Cranial Window Model: The purpose of this experiment was to determine the acute effect of anti-CGRP antagonist antibodies and compare it with the acute effect of the CGRP receptor antagonist BIBN4096BS. Experiments were carried out as previously described (Williamson et al., Cephalalgia 17(4):518-24 (1997)) with the following modifications. Sprague Dawley rats (300-400 g) were anesthetized with 70 mg/kg i.p. pentobarbital. Anesthesia was maintained with 20 mg/kg/hr i.v. pentobarbital. Rats were cannulated through the jugular vein for delivery of all drugs. Blood pressure was monitored with a probe (mikro-tip catheter, Millar Instruments) threaded through the femoral artery into the abdominal aorta. The rats were tracheotomized and breathing rate was maintained at 75 breaths per minute at a volume of 3.5 mL. After fixating the head in a stereotactic instrument and removing the scalp, a 2×6 mm window in the left parietal area just lateral to the sagittal suture was made by thinning the bone with a dental drill. Using a micromanipulator, a platinum bipolar electrode was lowered onto the surface and covered with heavy mineral oil. Lateral to the electrode window another window of 5×6 mm was created and filled with heavy mineral oil through which the diameter of a branch of the middle meningeal artery (MMA) was continuously monitored with a CCD camera and a video dimension analyzer (Living Systems). The rats were rested for no less than 45 minutes after the preparation. A baseline response to electrical stimulation was established (15 V, 10 hz, 0.5 ms pulses, 30 seconds) and then rats were dosed i.v. with experimental compound (10 mg/kg mu7E9, 300 μg/kg BIBN4096BS or PBS 0.01% Tween 20). Additional electrical stimulations were done at 5 (BIBN4096BS), 30, 60, 90 and 120 minutes after dosing. All data was recorded using chart software (ADInstruments).
The purpose of this experiment was to determine if the anti CGRP antibody could still block electrically stimulated MMA dilation 7 days after dosing. Preparation of the rats was identical to the above described acute experiment (Example 6) with the following exceptions. […] It was impossible to establish a baseline dilation response to electrical stimulation prior to dosing as in the acute experiment so the antibody groups were compared to dilation of the MMA in a vehicle (PBS, 0.01% Tween 20) dosed control group. After the rats were allowed to rest for no less than 45 minutes the dura was electrically stimulated at 30 minute intervals. Stimulations were at 2.5V, 5V, 10V, 15V and 20V, all at 10 Hz, 0.5 ms pulses for 30 seconds.

For test [2], the system named is CGRP activity (skin blood flow after saphenous nerve stimulation). Description: Skin vasodilatation induced by stimulation of rat saphenous nerve. The test is classed as in vivo. As to conditions: for blood flow increase stimulated by electronic pulses on saphenous nerve: compared to vehicle. Here is the method: To test antagonist activity of anti-CGRP antibodies, effect of the antibodies on skin vasodilatation by stimulation of rat saphenous nerve was tested using a rat model described previously. Escott et al., Br. J. Pharmacol. 110:772-776, 1993. In this rat model, electrical stimulation of saphenous nerve induces release of CGRP from nerve endings, resulting in an increase in skin blood flow. Blood flow in the foot skin of male Sprague Dawley rats (170-300 g, from Charles River Hollister) was measured after saphenous nerve stimulation. Rats were maintained under anesthesia with 2% isoflurane. Bretylium tosylate (30 mg/kg, administered i.v.) was given at the beginning of the experiment to minimize vasoconstriction due to the concomitant stimulation of sympathetic fibers of the saphenous nerve. Body temperature was maintained at 37° C. by the use of a rectal probe thermostatically connected to a temperature controlled heating pad. Compounds including antibodies, positive control (CGRP 8-37), and vehicle (PBS, 0.01% Tween 20) were given intravenously through the right femoral vein, except for the experiment shown in FIG. 3, the test compound and the control were injected through tail vein, and for experiments shown in FIGS. 2A and 2B, antibodies 4901 and 7D11 were injected intraperitoneally (IP). Positive control compound CGRP 8-37 (vasodilatation antagonist), due to its short half-life, was given 3-5 min before nerve stimulation at 400 nmol/kg (200 μl). Tan et al., Clin. Sci. 89:656-73, 1995. The antibodies were given in different doses (1 mg/kg, 2.5 mg/kg, 5 mg/kg, 10 mg/kg, and 25 mg/kg).
For experiments shown in FIGS. 2A and 2B, antibody 4901 (25 mg/kg), antibody 7D11 (25 mg/kg), or vehicle control (PBS with 0.01% Tween 20) was administered intraperitoneally (IP) 72 hours before the electrical pulse stimulation. For experiment shown in FIG. 3, antibody 4901 (1 mg/kg, 2.5 mg/kg, 5 mg/kg, or 25 mg/kg) or vehicle control (PBS with 0.01% Tween 20) was administered intravenously 24 hours before the electrical pulse stimulation. After administration of the antibodies or vehicle control, the saphenous nerve of the right hindlimb was exposed surgically, cut proximally and covered with plastic wrap to prevent drying. A laser Doppler probe was placed over the medio-dorsal side of the hindpaw skin, which is the region innervated by the saphenous nerve. Skin blood flow, measured as blood cell flux, was monitored with a laser Doppler flow meter. When a stable base-line flux (less than 5% variation) was established for at least 5 min, the nerve was placed over platinum bipolar electrodes and electrically stimulated with 60 pulses (2 Hz, 10 V, 1 ms, for 30 sec) and then again 20 minutes later. Cumulative change in skin blood flow was estimated by the area under the flux-time curve (AUC, which is equal to change in flux multiplied by change in time) for each flux response to electrical pulse stimulation. The average of the blood flow response to the two stimulations was taken. Animals were kept under anesthesia for a period of one to three hours.
For experiments shown in FIGS. 4A and 4B, saphenous nerve was exposed surgically before antibody administration. The saphenous nerve of the right hindlimb was exposed surgically, cut proximally and covered with plastic wrap to prevent drying. […] Skin blood flow, measured as blood cell flux, was monitored with a laser Doppler flow meter. […]

The mark [3] stands for this setting: 900 mg group (n = 85), Change from Baseline to Month 1.
Where [4] appears, read: 900 mg group (n = 85), Change from Baseline to Month 2.
Where [5] appears, read: 900 mg group (n = 85), Change from Baseline to Month 3.
The mark [6] stands for this setting: 675/225 mg group (n = 87), Change from Baseline to Month 1.
Setting [7] is: 675/225 mg group (n = 87), Change from Baseline to Month 2.
The mark [8] stands for this setting: 675/225 mg group (n = 87), Change from Baseline to Month 3.

Marks after values point to notes of the source that are not given here.

“G1: anti-CGRP antagonist antibody produced by expression vectors ATCC PTA-6867 and PTA-6866; VH SEQ ID NO:1, VL SEQ ID NO:2; modified human IgG2 [Clone G1]”: the “Days using acute medications, change from baseline, mean (SE)” value was −5.4 (0.7)** Days in the test with chronic migraine (setting [3]); −5.8 (0.7) Days in the test with chronic migraine (setting [4]); −5.3 (0.7)* Days in the test with chronic migraine (setting [6]); −6.6 (0.7)* Days with chronic migraine (setting [7]); −6.6 (0.7)* Days with chronic migraine (setting [8]). Moreover, the “Headache hours, change from baseline, mean (SE)” value in the test with chronic migraine (setting [3]) is on record as −56.8 (7.3)^+ hours; in the test with chronic migraine (setting [4]), −66.2 (8.1)^+ hours; with chronic migraine (setting [5]), −67.5 (8.6)** hours; in the test with chronic migraine (setting [6]) it was −44.1 (7.3)** hours; in the test with chronic migraine (setting [7]), −58.3 (8.1)* hours; in the test with chronic migraine (setting [8]), −59.8 (8.6)* hours. The “M/S Headache Days (days with moderate to severe headaches), change from baseline, mean (SE)” value in the test on chronic migraine (setting [3]) was −5.7 (0.6)^+ Days; in the test on chronic migraine (setting [4]), −5.9 (0.6) Days; in the test with chronic migraine (setting [6]) it was −4.9 (0.6)** Days; in the test with chronic migraine (setting [7]) it was −5.8 (0.6) Days; in the test with chronic migraine (setting [8]), −6.0 (0.7)* Days. Further, the “Migraine Days, change from baseline, mean (SE)” value in the test on chronic migraine (setting [3]) was −6.3 (0.7)^+ Days; in the test on chronic migraine (setting [4]), −6.7 (0.7)^ Days; in the test on chronic migraine (setting [5]) it was −7.1 (0.8)* Days; in the test on chronic migraine (setting [7]) it was −6.6 (0.7) Days; with chronic migraine (setting [8]) it was −6.8 (0.8) Days. Also, the “Subjects with >50% Decrease in M/S Headache days” value is on record as 47 (55%)^+ N (%) in the test with chronic migraine (900 mg group, Month 1); 47 (55%)* N (%) in the test with chronic migraine (900 mg group, Month 2); 47 (55%)^+ N (%) in the test on chronic migraine (900 mg group, Month 3); 36 (41%)* N (%) in the test on chronic migraine (675/225 mg group, Month 1); 42 (48%) N (%) with chronic migraine (675/225 mg group, Month 2); 46 (53%)** N (%) in the test on chronic migraine (675/225 mg group, Month 3). Moreover, the “Subjects with >75% Decrease in M/S Headache days” value in the test with chronic migraine (900 mg group, Month 1) is given as 28 (33%)^+ N (%); with chronic migraine (900 mg group, Month 2) it was 26 (31%) N (%); with chronic migraine (900 mg group, Month 3) it was 27 (32%)* N (%); in the test on chronic migraine (675/225 mg group, Month 1), 19 (22%)** N (%); in the test on chronic migraine (675/225 mg group, Month 2), 26 (30%)* N (%); with chronic migraine (675/225 mg group, Month 3) it was 25 (29%)* N (%). Besides, the “Average number of headache hours at visits 2, 3 and 4” value with chronic migraine (both treatment groups vs placebo) is recorded as “significant decrease”. Also, the “number of headache hours in subjects using prevention medications” value with chronic migraine (e.g. topiramate and amitriptyline or propranolol, relative to a placebo group) was “significant decrease”. Moreover, the “MMA dilation evoked by electrical stimulation” value in test [1] (10 mg/kg and 3 mg/kg i.v., 7 days prior, 10 to 20 volts, vs vehicle) is “significantly blocked”. In addition, the “blood flow increase stimulated by electronic pulses on saphenous nerve” value in test [2] (1 mg/kg i.v., stimulation at 90 min) was “significantly inhibited”; in test [2] (10 mg/kg i.v., stimulation at 90 and 120 minutes) it was “significantly inhibited”. Also, the “blood flow increases in the dorso-medial hindpaw skin evoked by saphenous nerve stimulation” value in test [2] (10 mg/kg or 3 mg/kg i.v., 24 hours or 7 days prior to stimulation, vs vehicle) is recorded as “significantly inhibited”. Besides, the “EC50 at 24 hours (dose required for 50% maximal effect)” value in test [2] (i.v. 24 hours before stimulation, curve fit) turned out to be 1.3 mg/kg. The “EC50 at 7 days (dose required for 50% maximal effect)” value in test [2] (i.v. 7 days before stimulation, curve fit) is given as 0.8 mg/kg.
Consider `NCCCC[C@H](NC(=O)[C@@H](Cc1cc(Br)c(O)c(Br)c1)NC(=O)N1CCC(N2Cc3ccccc3NC2=O)CC1)C(=O)N1CCN(c2ccncc2)CC1` [BIBN4096BS], for which, in test [1] (300 μg/kg i.v.), the “time after dosing within which MMA dilation is blocked” value was no more than 5 min and the “time by which the effect has completely disappeared” value was no more than 90 min. Besides, in test [1] (300 μg/kg i.v., acute), the “MMA dilation evoked by electrical field stimulation” value is recorded as “blocks”.
